According to US20220002429A1, “TUMOR CELL AGGREGATION INHIBITORS' FOR TREATING CANCER” (Northwestern University, priority 2018, published 2022):
Residues, ends and D or L forms follow the SMILES beside them. *: point of attachment. Cbz = O=C(OCc1ccccc1)*

How the values were obtained:
phospho-EGFR (Y845) = test: immunoblot of phospho-EGFR (Y845) in siCD44-transfected MDA-MB-231 cells; format: cell-based, human; details: siCD44 MDA-MB-231 cells in suspension, inhibitor for 6 hours
Experimental: FIG. 23. CD44 promotes EGFR stability and activity in clusters. A. Immunoblots of phospho-EGFR (Y845), EGFR and actin of TN1-PDX tumor cells in clustering assays upon CD44 knockdown for 36 hours. B. Real-time PCR showing no significant (NS) effect of siCD44 on EGFR mRNA levels. Immunoblots of phospho-EGFR (Y845) and total EGFR of MDA-MB-231 cells in suspension for 48 hours after transfected with scramble control (con), siCD44, or siEGFR. D. Immunoblots of phospho-EGFR (Y845) in MDA-MB-231 cells, transfected with siCD44, either adherent (adh) or in suspension in the presence of proteasome inhibitor (MG-132) or endocytosis inhibitor (sucrose) for 6 hours. E. Immunoprecipitation of CD44-FLAG and detection of EGFR by immunoblot.
Western blot. Cells were lysed by RIPA buffer supplemented with Amresco protease inhibitor cocktail (1:100 diluted) and centrifuged for 10 mins at 4 degrees and 10,000 RPM. Protein concentration was measured and 20 ug of protein was loaded for each sample. Antibodies used: EGFR, p-EGFR, b-actin (abcam).

MDA-MB-231 cells [1] = test: orthotopic breast tumor model: primary tumor, spontaneous lung metastasis and blood CTC clusters; format: in vivo, mice
From the text: FIG. 21. Inhibition of EGFR blocks spontaneous metastasis. A. Timeline of treatment after palpable tumor formation in PDX model TN1. B. Bioluminescent images of tumor growth before or 1, or 17 days after treatment. C. Primary tumor signal over time, ns. D. Tumor images after 2 weeks of treatment. E. Bioluminescent images of lungs after treatment. F. Measured signal of lungs. p=0.09. G. Timeline of treatment of mice with Erlotinib or vehicle for FIGS. 19H-L. H. Bioluminescence images of orthotopically-implanted breast tumors treated with vehicle or 50 mg/kg Erlotinib (daily orally) for 4 weeks. I. BLI signal (total flux) histograms of the lungs from vehicle and Erlotinib-treated breast tumor bearing mice as shown in H. J. Bioluminescence images of dissected lungs from tumor bearing mice treated with vehicle or Erlotinib in C. K. Fluorescence images of dissected lungs from tumor bearing mice treated with vehicle or Erlotinib in C. L. Representative mix-color tumor cell clusters in blood from tumor bearing mice treated with vehicle or Erlotinib in C.
Inhibition of EGFR successfully blocks clustering and lung colonization. Using flow cytometry, we found enriched EGFR expression in clustered cells in the blood of breast cancer patients (FIG. 25). […] Furthermore, tdTomato- and eGFP-labeled MDA-MB-231 cells were implanted orthotopically together into the mammary fat pads of mice for examination of tumor cell cluster-mediated polyclonal, spontaneous lung metastasis.
Mouse models and tumor dissociation. 8-10 weeks old NOD/SCIDmice were used for PDXs and human MDA-MB-231 cell-based xenograft studies. The triple negative PDXs and MDA-MB-231 cells were lentivirally labeled by eGFP, tdTomato, Luc2-eGFP (L2G), or Luc2-tdTomato (L2T) using the lentiviruses and labeling protocol as described previously^3. PDX tumors were harvested and dissociated either with Collagenase III (TN1 model) or Liberase TH and TM research grade (TN2 model and lung tissues). Briefly, tumors were minced and incubated for 2-4 h at 37° C. with Collagenase III (Wortington Biomedical) or Liberase TH and TM (Roche) and 100 Kunitz U of DNase I (Sigma) in 20 mL of RPMI medium with 20 mM Hepes buffer. Single-cell suspensions were filtered through 40-μm nylon cell strainers and washed with Hanks' balanced saline solution (HBSS; Sigma) containing 2% heat-inactivated fetal bovine serum (FBS). Red blood cells were lysed with ACK lysis buffer, and dissociated bulk tumor cells were either cultured or stained with various antibodies in HBSS/2% FBS for further flow analysis or sorting on a BD FacsAria (BD Biosciences). […]
Bioluminescence imaging. […] Signals are presented as total photon flux and analyzed using Living Image 3.0 software (Caliper Life Sciences).

TN1 PDX tumor cells = test: ex vivo aggregation (clustering) assay of dissociated PDX tumor cells, IncuCyte time-lapse imaging; format: cell-based, human
Experimental: Cell clustering assay. Freshly dissociated primary tumor cells in single cell suspension were seeded in collagen type I-coated 96-well plates. The plates were put into the IncuCyte live cell imaging system (Essen BioScience), and live images were taken every 2-4 h for up to one week. The cluster number and size were analyzed by Incucyte ZOOM software (Essen BioScience). In specific experiments, primary tumor cells might be sorted based on the expression of CD44 prior to seeding. In other experiments, seeded tumor cells might be transfected with siRNAs (100 nM) or treated with various inhibitors during the clustering assays. For cell viability analysis during clustering, the IncuCyte Cytotox Red reagent (Essen BioScience) was added to the medium according to the manufacturer's instructions.

MDA-MB-231 cells [2] = test: MDA-MB-231 cell aggregation in suspension on Poly-HEMA-coated plates; format: cell-based, human; details: 4-MU 0.4 mM/L pre-treatment for 48 h; aggregation at 1 h
Experimental: Hyaluronan inhibition. Two complementary approaches were utilized to inhibit hyaluronan, the known CD44 ligand, in the two models. First, for the TN PDX model, dissociated cells were treated with hyaluronan antagonist (o-HA, HA oligomers) at 100 μg/mL during the 72-hour aggregation assays. For MDA-MB-231 cells, the hyaluronic acid synthase inhibitor 4-methylumbelliferone (4-MU, 0.4 mM/L) was added to the adherent culture. After 48 h of treatment, the cells were trypsinized and transferred to a poly-hydroxyethyl methacrylate (Poly-HEMA, Sigma-Aldrich) coated plate, and the images were taken at the indicated times by Leica microscopy.
Cell clustering assay. Freshly dissociated primary tumor cells in single cell suspension were seeded in collagen type I-coated 96-well plates. The plates were put into the IncuCyte live cell imaging system (Essen BioScience), and live images were taken every 2-4 h for up to one week. The cluster number and size were analyzed by Incucyte ZOOM software (Essen BioScience). In specific experiments, primary tumor cells might be sorted based on the expression of CD44 prior to seeding. In other experiments, seeded tumor cells might be transfected with siRNAs (100 nM) or treated with various inhibitors during the clustering assays. […]

[3] = Erlotinib 50 mg/kg daily orally for 4 weeks

CC(C)C[C@@H](C=O)NC(=O)[C@H](CC(C)C)NC(=O)[C@H](CC(C)C)NC(=O)OCc1ccccc1 [MG-132] (Cbz-Leu-Leu-Leu-aldehyde)
p-EGFR levels reduced by CD44 knockdown (phospho-EGFR (Y845)): rescued

C#Cc1cccc(Nc2ncnc3cc(OCCOC)c(OCCOC)cc23)c1 [Erlotinib]
primary tumor formation (MDA-MB-231 cells [1]; [3]): no effects on primary tumor formation
spontaneous lung metastasis (MDA-MB-231 cells [1]; [3]): significantly and dramatically reduced the spontaneous lung metastasis
CTC clusters in dual colors in the blood (MDA-MB-231 cells [1]; Erlotinib vs vehicle): only detectable in the blood collected from the vehicle-treated mice
dual color metastasis colonies in the lungs (MDA-MB-231 cells [1]; Erlotinib vs vehicle): absent but with reduced single-colored colonies
PDX-derived tumor cell cluster formation, counts and size (TN1 PDX tumor cells; incubation with Erlotinib (1-10 μM), 72 hours): dramatically reduced PDX-derived tumor cell cluster formation, both the counts and size

Cc1cc(=O)oc2cc(O)ccc12 [4-MU, 4-methylumbelliferone]
aggregation of MDA-MB-231 cells in suspension (MDA-MB-231 cells [2]): did not significantly alter the aggregation

OC[C@H]1O[C@@](CO)(O[C@H]2O[C@H](CO)[C@@H](O)[C@H](O)[C@H]2O)[C@@H](O)[C@@H]1O [sucrose]
p-EGFR levels reduced by CD44 knockdown (phospho-EGFR (Y845)): rescued

CCn1c(=O)c(-c2ccc(-c3cncs3)cc2Cl)cc2cnc(Nc3ccc(N4CCN(C)CC4)cc3)nc21 [FRAX597]
ex vivo aggregation of TN1 PDX tumor cells (cluster size and number) (TN1 PDX tumor cells; FRAX597 500 nM for 72 hours): partially blocked the ex vivo aggregation
